Assays:
[1] = tested on: salivary glands, kidneys, red marrow; assay: Dosimetry estimate for ^225Ac-PSMA-617 extrapolated from ^177Lu-PSMA-617 scans; assay type: in vivo, human; conditions: FIG. 15
Protocol: The clinical dosimetry basis and dose finding study was performed by using the isotopes ^225Ac and ^177Lu by Kratochwil et al. A dosimetry estimate was calculated on the basis of time-activity curves derived from serially obtained ^177Lu-PSMA-617 scans extrapolated to the physical half-life of ^225Ac, assuming instant decay of unstable daughter nuclides. Salvage therapies empirically conducted with 50 (n=4), 100 (n=4), 150 (n=2), and 200 kBq/kg (n=4) of 225Ac-PSMA-617 were evaluated retrospectively regarding toxicity and treatment response. Eight of 14 patients received further cycles in either 2- or 4-mo intervals with identical or de-escalated activities.
In FIG. 15, the absorbed radiation dose estimates for ^225Ac-PSMA-617 are shown together with I-131-“PSMA” and ^177Lu-PSMA-617 doses. We see that mean dose for salivary glands is approximately 70% higher with ^225Ac-PSMA-617 than with ^177Lu-PSMA-617, and red marrow dose 85% higher, respectively.

patients with mCRPC = conditions: cited from earlier work
[2] = Kratochwil 2016, 2 patients, 100 kBq/kg per cycle
[3] = both patients, 100 kBq/kg every 8 weeks

O=C(O)CC[C@H](NC(=O)N[C@@H](CCCCNC(=O)[C@H](Cc1ccc2ccccc2c1)NC(=O)[C@H]1CC[C@H](CNC(=O)CN2CCN(CC(=O)O)CCN(CC(=O)O)CCN(CC(=O)O)CC2)CC1)C(=O)O)C(=O)O [^225Ac-PSMA-617, metal not drawn]
mean dose for salivary glands higher than with ^177Lu-PSMA-617 [1]: approximately 70% | red marrow dose higher than with ^177Lu-PSMA-617 [1]: 85% | Salivary gland toxicity (xerostomia) (patients with mCRPC; 2 patients): reported in both patients | Biochemical response PSA50 (patients with mCRPC; [2]): 100% | Major toxicity (patients with mCRPC; [2]): xerostomia | PSA (patients with mCRPC; [3]): declined below the measurable level | response on ^68Ga-PSMA-11 PET/CT scan (patients with mCRPC; [3]): complete response

— patent US20250303004A1, “RADIOPHARMACEUTICAL COMPOSITIONS FOR LOW TOXICITY ACTINIUM IN TARGETED RADIONUCLIDE THERAPY” (Curium US LLC, priority 2021, published 2025)
